Patent US20240425812A1, “HYPOVENTILATION PHYSICAL MODELS AND APPLICATIONS THEREOF” (The University of Hong Kong, priority 2023, published 2024)

What was measured:
HBSO neurons = experiment: Multi-electrode array (MEA) analysis of dissociated day 60 HBSO neurons; type: cell-based, human; details: 10 μM, applied immediately before recording
Method: The functionality of HBSO neurons, particularly their responses to hypercapnia, is further assessed using multi-electrode array (MEA) analyses. Briefly, Day 60 HBSOs arc dissociated with Papain Dissociation System (Worthington, LK003150) following the manufacturer's protocol. In brief, the HBSOs are digested with the papain solution in 37° C. incubator for 30 min with continuous shaking at 90 r.p.m. and then triturated with P1000 pipette. The triturated HBSOs are further digested in 37° C. incubator for an additional 10 min and then filtered through 40 μm cell strainer (Corning, 352340) to remove undigested cell debris. The dissociated cells are collected by centrifuging at 300×g for 5 min at room temperature. The cells are then resuspended with DNase/ovomucoid inhibitor solution to stop the digestion. […] MEA recordings are measured at 37° C. with 5-8% CO2 in a Maestro Edge MEA System (Axion Biosystems) to detect spontaneous firing of spikes. The MEA plate is pre-equilibrated in the MEA system for at least 5 min before measurement and each treatment is recorded for 5-10 min to calculate the mean spike firing rate. […] The MEA recordings are analyzed using the Neural Module of AxIS Navigator 1.5 software and the Neural Metric Tool software (Axion Biosystems). […]

HBSOs = experiment: HBSO differentiation with WNT antagonist added on days 3-6 (growth, RT-qPCR of patterning markers at day 20); type: cell-based, human
Method: To generate HSBOs, hPSCs are dissociated into single cell suspension by treating with 0.5 mM EDTA solution in DPBS and then Accutase as described above. 2.7×10^6 cells are seeded to a well of AggreWell800 24-well plate (STEMCELL Technologies, 34815) which contained 300 microwells per well (i.e. 9,000 cells per microwell). The cells are kept in mTeSR1 with 10 μM Y-27632 overnight in 37° C. incubator for the spheroid formation and they are marked as day 0 at this stage. At day 1, the spheroids from one well of Aggre Well800 are split into 3 wells of 6-well ultra-low-attachment plate containing Neural Induction Medium (DMEM/F12, 1% N2 supplement (v/v), 1% GlutaMAX supplement (v/v), 1% MEM-NEAA (v/v) and 1 μg ml^−1 Heparin) supplemented with BMP inhibitor LDN-193189 (1 μM) and TGF-β inhibitor SB431542 (10 μM). […]
Total RNA from HCOs and HBSOs are extracted by RNeasy Mini Kit (Qiagen) and the RNA concentrations are determined by Nanodrop 1000 Spectrophotometer (Thermo Fisher Scientific). […] Fluorescence is measured by ViiA 7 Real-Time PCR System (Thermo Fisher Scientific) at the end of each cycle. […]

NCCc1c[nH]c2ccc(O)cc12 [5-HT, serotonin]
firing of HBSO neurons (HBSO neurons; FIG. 1J): capable of enhancing the firing

O=C(Nc1cccc2cccnc12)c1ccc(N2C(=O)[C@@H]3[C@H](C2=O)[C@@H]2C=C[C@H]3C2)cc1 [IWR1-endo]
favoring the dB2 domain formation (PHOX2B expression) (HBSOs; 1 μM or 10 μM, day 20 RT-qPCR, FIG. 1D): does not provide additional benefits | growth of the HBSOs (HBSOs; 10 μM): inhibited the growth

CC1CCN(CC[C@H]2CCCN2S(=O)(=O)c2cccc(O)c2)CC1 [SB269970]
hypercapnia responses of HBSO neurons (HBSO neurons; FIG. 1K): counteraction of these responses
